# Target: T1, Proteinase-activated receptor 2 (Homo sapiens, UniProt P55085)
# T1 sequence (P55085 whole entry): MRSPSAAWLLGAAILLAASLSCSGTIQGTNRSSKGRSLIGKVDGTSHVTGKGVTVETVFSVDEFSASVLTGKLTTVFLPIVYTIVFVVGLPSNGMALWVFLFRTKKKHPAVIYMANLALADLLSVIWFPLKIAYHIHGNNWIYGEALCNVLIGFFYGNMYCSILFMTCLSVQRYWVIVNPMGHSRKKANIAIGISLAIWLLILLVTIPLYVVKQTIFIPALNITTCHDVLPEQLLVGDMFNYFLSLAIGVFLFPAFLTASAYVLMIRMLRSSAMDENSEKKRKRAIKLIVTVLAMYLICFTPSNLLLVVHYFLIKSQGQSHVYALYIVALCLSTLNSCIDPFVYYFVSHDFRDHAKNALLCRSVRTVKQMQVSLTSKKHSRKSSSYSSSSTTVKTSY
# Assay: Antagonist activity at PAR2 in human HT-29 cells assessed as inhibition of 2f-LIGRLO-NH2-stimulated intracellular calcium release preincubated for 30 mins followed by 2f-LIGRLO-NH2 stimulation measured for 60 sec by Fluo-3 AM dye based FLIPR assay
smiles,measurement,value
CC[C@H](C)[C@H](NC(=O)[C@H](CC1CCCCC1)NC(=O)c1ccno1)C(=O)N1CCCC[C@H]1C(=O)NC(C)(C)C,IC50,7.94 µM

# Reference: BindingDB's records for doi:10.1021/acsmedchemlett.6b00306 (The University of Queensland, 2016)
